Among the data in US20240124418A1 (BioTheryX, Inc., priority 2020, published 2024) are inhibition values, retold here.

The subject of the assay is TNF-α. The assay is described as follows: Cell-based TNF-α inhibition assay (LPS-induced PBMCs, Meso Scale). The following applies: PBMC, PBMCs pretreated 1 h, LPS 100 ng/mL 18-24 h, percentage of stimulated DMSO control; for inhibition at 0.1 µM: compound concentration 0.1 μM; for inhibition at 1 µM: compound concentration 1 μM. As to the method:
Example B1. Cell-Based TNF-α Inhibition Assay
Frozen primary blood mononuclear cells (PBMCs) were quick thawed, washed once with RPMI 1640 media supplemented with 10% fetal bovine serum, 1% penicillin, and 1% streptomycin, and plated in a 96 well plate at 200,000 cells per well. The cells were pretreated with DMSO only as a control or a compound for 1 h, and then induced with LPS (lipopolysaccharide) (100 ng/mL) for 18-24 h. The supernatant was analyzed for TNF-α using the Meso Scale assay. Compound activity was determined as a percentage of the stimulated DMSO control. The results are summarized in Table 1, where A represents a percent inhibition value ≥60%; B represents a percent inhibition value <60% and ≥40%; C represents a percent inhibition value <40% and ≥20%; and D represents a single percent inhibition value <20%.

Some results are limits rather than exact numbers.

The term inhibition denotes the percentage by which the read-out fell short of the control. Turning to `CCOc1cc([C@@H](CS(C)(=O)=O)N2C(=O)c3c(CCCCCCCCCCCCN4CCC(c5cc(F)cc6c5CN(C5CCC(=O)NC5=O)C6=O)CC4)ccc(NC(C)=O)c3C2=O)ccc1OC` (stereo partly drawn) [Compound A17, N-[7-(12-{4-[2-(2,6-Dioxopiperidin-3-yl)-6-fluoro-1-oxo-2,3-dihydro-1H-isoindol-4-yl]piperidin-1-yl}dodecyl)-2-[(1S)-1-(3-ethoxy-4-methoxyphenyl)-2-methanesulfonylethyl]-1,3-dioxo-2,3-dihydro-1H-isoindol-4-yl]acetamide], the inhibition at 0.1 µM is not below 60% and the inhibition at 1 µM is not below 60%.
As to `CCOc1cc([C@@H](CS(C)(=O)=O)N2C(=O)c3cccc(NC(=O)CCCN4CCN(CCNCc5ccc(OCc6scc7c6CN(C6CCC(=O)NC6=O)C7=O)cc5)CC4)c3C2=O)ccc1OC` (stereo partly drawn) [Compound A45, 4-[4-(2-{[(4-{[5-(2,6-Dioxopiperidin-3-yl)-4-oxo-4H,5H,6H-thieno[3,4-c]pyrrol-1-yl]methoxy}phenyl)methyl]amino}ethyl)piperazin-1-yl]-N-{2-[(1S)-1-(3-ethoxy-4-methoxy-phenyl)-2-methanesulfonylethyl]-1,3-dioxo-2,3-dihydro-1H-isoindol-4-yl}butanamide], the inhibition at 0.1 µM is not below 60% and the inhibition at 1 µM is not below 60%.
Regarding `CCOc1cc([C@@H](CS(C)(=O)=O)N2C(=O)c3cccc(NC(=O)CCCCCCCCCN[C@H](C(=O)N4C[C@H](O)C[C@H]4C(=O)NCc4ccc(-c5scnc5C)cc4)C(C)(C)C)c3C2=O)ccc1OC` [Compound A65, (2S,4R)-1-[(2S)-2-{[9-({2-[(1S)-1-(3-Ethoxy-4-methoxyphenyl)-2-methanesulfonylethyl]-1,3-dioxo-2,3-dihydro-1H-isoindol-4-yl}carbamoyl)nonyl]amino}-3,3-dimethylbutanoyl]-4-hydroxy-N-{[4-(4-methyl-1,3-thiazol-5-yl)phenyl]methyl}pyrrolidine-2-carboxamide], the inhibition at 0.1 µM is not below 60% and the inhibition at 1 µM was not below 60%.
As for `CCOc1cc([C@@H](CS(C)(=O)=O)N2C(=O)c3cccc(NC(=O)CCCCCCC4CN(Cc5ccc(OCc6scc7c6CN(C6CCC(=O)NC6=O)C7=O)cc5)CCO4)c3C2=O)ccc1OC` (stereo partly drawn) [Compound A47], the inhibition at 0.1 µM is not below 60% and the inhibition at 1 µM is not below 60%.
Turning to `CCOc1cc([C@@H](CS(C)(=O)=O)N2C(=O)c3cccc(NCCCCCCCCCN4CCC(c5cc6c(cc5F)C(=O)N(C5CCC(=O)NC5=O)C6)CC4)c3C2=O)ccc1OC` (stereo partly drawn) [Compound A25, 4-[(9-{4-[2-(2,6-Dioxopiperidin-3-yl)-6-fluoro-1-oxo-2,3-dihydro-1H-isoindol-5-yl]piperidin-1-yl}nonyl)amino]-2-[(1S)-1-(3-ethoxy-4-methoxyphenyl)-2-methanesulfonylethyl]-2,3-dihydro-1H-isoindole-1,3-dione], the inhibition at 0.1 µM was not below 60% and the inhibition at 1 µM was not below 60%.
On to `CCOc1cc([C@@H](CS(C)(=O)=O)N2C(=O)c3cccc(NC(=O)CCCCCCCN4CCN(CC(=O)Nc5ccc6c(C7CCC(=O)NC7=O)nn(C)c6c5)CC4)c3C2=O)ccc1OC` (stereo partly drawn) [Compound A77, 8-[4-({[3-(2,6-Dioxopiperidin-3-yl)-1-methyl-1H-indazol-6-yl]carbamoyl}-methyl)piperazin-1-yl]-N-{2-[(1S)-1-(3-ethoxy-4-methoxyphenyl)-2-methanesulfonylethyl]-1,3-dioxo-2,3-dihydro-1H-isoindol-4-yl}octanamide], for which the inhibition at 0.1 µM is not below 60% and the inhibition at 1 µM was not below 60%.
As for `CCOc1cc([C@@H](CS(C)(=O)=O)N2C(=O)c3cccc(NC(=O)CCCCCCCCCCOc4cc(-c5scnc5C)ccc4CNC(=O)[C@@H]4C[C@@H](O)CN4C(=O)[C@@H](NC(C)=O)C(C)(C)C)c3C2=O)ccc1OC` [Compound A75, (2S,4R)-1-[(2S)-2-Acetamido-3,3-dimethylbutanoyl]-N-[(2-{[10-({2-[(1S)-1-(3-ethoxy-4-methoxyphenyl)-2-methanesulfonylethyl]-1,3-dioxo-2,3-dihydro-1H-isoindol-4-yl}-carbamoyl)decyl]oxy}-4-(4-methyl-1,3-thiazol-5-yl)phenyl)methyl]-4-hydroxypyrrolidine-2-carboxamide], the inhibition at 0.1 µM is not below 60% and the inhibition at 1 µM is not below 60%.
On to `CCOc1cc([C@@H](CS(C)(=O)=O)N2C(=O)c3cccc(NC(=O)CCCCCCNCc4ccc(OCc5scc6c5CN([C@H]5CCC(=O)NC5=O)C6=O)cc4)c3C2=O)ccc1OC` [Compound A38, 7-((4-((5-((S)-2,6-Dioxopiperidin-3-yl)-4-oxo-5,6-dihydro-4H-thieno[3,4-c]pyrrol-1-yl)methoxy)benzyl)amino)-N-(2-((S)-1-(3-ethoxy-4-methoxyphenyl)-2-(methylsulfonyl)ethyl)-1,3-dioxoisoindolin-4-yl)heptanamide], for which the inhibition at 0.1 µM was not below 60%.
Consider `CCOc1cc([C@@H](CS(C)(=O)=O)N2C(=O)c3cccc(OCCCCCCCCCNCc4ccc(OCc5scc6c5CN(C5CCC(=O)NC5=O)C6=O)cc4)c3C2=O)ccc1OC` (stereo partly drawn) [Compound A50, 4-[(9-{[(4-{[5-(2,6-Dioxopiperidin-3-yl)-4-oxo-4H,5H,6H-thieno[3,4-c]pyrrol-1-yl]methoxy}phenyl)methyl]amino}nonyl)oxy]-2-[(1S)-1-(3-ethoxy-4-methoxyphenyl)-2-methane-sulfonylethyl]-2,3-dihydro-1H-isoindole-1,3-dione], for which the inhibition at 0.1 µM is not below 60% and the inhibition at 1 µM was not below 60%.
Turning to `CCOc1cc([C@@H](CS(C)(=O)=O)N2C(=O)c3cccc(NC(=O)CCCCCN4CCN(CC(=O)Nc5ccc(C6CCC(=O)NC6=O)cc5)CC4)c3C2=O)ccc1OC` (stereo partly drawn) [Compound A83, 6-[4-({[4-(2,6-Dioxopiperidin-3-yl)phenyl]carbamoyl}methyl)piperazin-1-yl]-N-{2-[(1S)-1-(3-ethoxy-4-methoxyphenyl)-2-methanesulfonylethyl]-1,3-dioxo-2,3-dihydro-1H-isoindol-4-yl}hexanamide], the inhibition at 0.1 µM was not below 60% and the inhibition at 1 µM was not below 60%.
With `CCOc1cc([C@@H](CS(C)(=O)=O)N2C(=O)c3cccc(NC(=O)CCCCCCCCOc4cc(-c5scnc5C)ccc4CNC(=O)[C@@H]4C[C@@H](O)CN4C(=O)[C@@H](NC(C)=O)C(C)(C)C)c3C2=O)ccc1OC` [Compound A74, (2S,4R)-1-[(2S)-2-Acetamido-3,3-dimethylbutanoyl]-N-[(2-{[8-({2-[(1S)-1-(3-ethoxy-4-methoxyphenyl)-2-methanesulfonylethyl]-1,3-dioxo-2,3-dihydro-1H-isoindol-4-yl}-carbamoyl)octyl]oxy}-4-(4-methyl-1,3-thiazol-5-yl)phenyl)methyl]-4-hydroxypyrrolidine-2-carboxamide], the inhibition at 0.1 µM is not below 60% and the inhibition at 1 µM is not below 60%.
In the case of `CC(=O)NC(=O)C(C)N1Cc2c(cc(F)cc2C2CCN(CCCCCCCCCOc3cc(C(=O)Nc4c(Cl)cncc4Cl)ccc3OC(F)F)CC2)C1=O` (stereo not drawn) [Compound B13, 3-((9-(4-(2-(1-Acetamido-1-oxopropan-2-yl)-6-fluoro-1-oxoisoindolin-4-yl)piperidin-1-yl)nonyl)oxy)-N-(3,5-dichloropyridin-4-yl)-4-(difluoromethoxy)benzamide], the inhibition at 0.1 µM was not below 60% and the inhibition at 1 µM is not below 60%.
For the molecule `CCOc1cc([C@@H](CS(C)(=O)=O)N2C(=O)c3cccc(NC(=O)CCCCCCCCCN4CCN(CC(=O)Nc5ccc(C6CCC(=O)NC6=O)cc5)CC4)c3C2=O)ccc1OC` (stereo partly drawn) [Compound A86, 10-[4-({[4-(2,6-Dioxopiperidin-3-yl)phenyl]carbamoyl}methyl)piperazin-1-yl]-N-{2-[(1S)-1-(3-ethoxy-4-methoxyphenyl)-2-methanesulfonylethyl]-1,3-dioxo-2,3-dihydro-1H-isoindol-4-yl}decanamide], the inhibition at 0.1 µM was not below 60% and the inhibition at 1 µM is not below 60%.
`CCOc1cc([C@@H](CS(C)(=O)=O)N2C(=O)c3cccc(NC(=O)CCCCCCCCNCc4ccc(COc5cccc6c5CN(C5CCC(=O)NC5=O)C6=O)cc4)c3C2=O)ccc1OC` (stereo partly drawn) [Compound A16, 9-({[4-({[2-(2,6-Dioxopiperidin-3-yl)-1-oxo-2,3-dihydro-1H-isoindol-4-yl]oxy}-methyl)phenyl]methyl}amino)-N-{2-[(1S)-1-(3-ethoxy-4-methoxyphenyl)-2-methanesulfonylethyl]-1,3-dioxo-2,3-dihydro-1H-isoindol-4-yl}nonanamide]: the inhibition at 0.1 µM was not below 60% and the inhibition at 1 µM is not below 60%.
Regarding `CCOc1cc([C@@H](CS(C)(=O)=O)N2C(=O)c3cccc(NC(=O)CCCCNCc4ccc(OCc5scc6c5CN(C5CCC(=O)NC5=O)C6=O)cc4)c3C2=O)ccc1OC` (stereo partly drawn) [Compound A39, 5-((4-((5-(2,6-Dioxopiperidin-3-yl)-4-oxo-5,6-dihydro-4H-thieno[3,4-c]pyrrol-1-yl)methoxy)benzyl)amino)-N-(2-((S)-1-(3-ethoxy-4-methoxyphenyl)-2-(methylsulfonyl)ethyl)-1,3-dioxoisoindolin-4-yl)pentanamide], the inhibition at 0.1 µM was not below 60%.
With `CCOc1cc([C@@H](CS(C)(=O)=O)N2C(=O)c3cccc(NC(=O)CCCCCCCCN4CCC(c5ccc6c(c5)CN(C5CCC(=O)NC5=O)C6=O)CC4)c3C2=O)ccc1OC` (stereo partly drawn) [Compound A26, 9-{4-[2-(2,6-Dioxopiperidin-3-yl)-1-oxo-2,3-dihydro-1H-isoindol-5-yl]piperidin-1-yl}-N-{2-[(1S)-1-(3-ethoxy-4-methoxyphenyl)-2-methanesulfonylethyl]-1,3-dioxo-2,3-dihydro-1H-isoindol-4-yl}nonanamide], the inhibition at 0.1 µM was not below 60% and the inhibition at 1 µM was not below 60%.
